Results on ten compounds are retold here after US20120202799A1, “Condensed Azepine Derivatives As Bromodomain Inhibitors” (priority 2009, published 2012).

The target of series [1] is T1, Bromodomain 2, 3 and 4 (BRD2, BRD3 and BRD4).
T1 construct: fused on or other part: six-His tag at the N-terminus
Description: Fluorescence Anisotropy Binding Assay. On the set-up: species or system Human. The conditions noted are these: result stated for one or more of BRD2, BRD3 and BRD4, target not specified per compound. Here is the method:
All data was normalized to the mean of 16 high and 16 low control wells on each plate. A four parameter curve fit of the following form was then applied:
y=a+((b−a)/(1+(10̂x/10̂c)̂d)
The His-tagged Bromodomain was extracted from E. coli cells using 0.1 mg/ml lysozyme and sonication. […] Further purification was completed by Superdex 200 prep grade size exclusion column. Purified protein was stored at −80 C in 20 mM HEPES pH 7.5 and 100 mM NaCl.
(In fluorescence polarisation assays a small probe gives low polarisation when free and higher when bound to something large.)

For series [2], the system named is TNFα levels in LPS stimulated whole blood. Description: LPS Stimulated Whole Blood Measuring TNFα Levels Assay. The series is classed as cell-based. The conditions noted are these: LPS final concentration 200 ng/ml, 24 hours at 37 degrees, TNFα by immunoassay, read-out: pIC50 (TNFα levels) (converted). Here is the method: Activation of monocytic cells by agonists of toll-like receptors such as bacterial lipopolysaccharide (LPS) results in production of key inflammatory mediators including TNFα. Such pathways are widely considered to be central to the pathophysiology of a range of auto-immune and inflammatory disorders.
Compounds to be tested are diluted to give a range of appropriate concentrations and 1 ul of the dilution stocks is added to wells of a 96 plate. Following addition of whole blood (130 μl) the plates are incubated at 37 degrees (5% CO2) for 30 min before the addition of 10 ul of 2.8 ug/ml LPS, diluted in complete RPMI 1640 (final concentration=200 ng/ml), to give a total volume of 140 μl per well. After further incubation for 24 hours at 37 degrees, 140 μl of PBS are added to each well. The plates are sealed, shaken for 10 minutes and then centrifuged (2500 rpm×10 min). 100 μl of the supernatant are removed and TNFα levels assayed by immunoassay (typically by MesoScale Discovery technology) either immediately or following storage at −20 degrees. Dose response curves for each compound was generated from the data and an IC50 value was calculated.

For the compound `Cc1nnc2n1-c1ccccc1C(c1ccccc1)=NC2NC(=O)OCc1ccco1` (centres unmarked) [Example 44, 2-furanylmethyl (1-methyl-6-phenyl-4H-[1,2,4]triazolo[4,3-a][1,4]benzodiazepin-4-yl)carbamate], the “pIC50 in one or more of the BRD2, BRD3 and BRD4 assays” value in series [1] is on record as not below 5.0.

As to `Cc1nnc2n1-c1ccccc1C(c1ccccc1)=NC2NC(=O)/C=C/c1ccccc1` (centres unmarked) [Example 64, (2E)-N-(1-methyl-6-phenyl-4H-[1,2,4]triazolo[4,3-a][1,4]benzodiazepin-4-yl)-3-phenyl-2-propenamide], the IC50 in series [2] is not above 10 µM.

For `CCOC(=O)NC1N=C(c2ccccc2)c2ccccc2-n2c(C)nnc21` (single isomer, unassigned; (+)) [Example 32, (+)-ethyl 1-methyl-6-phenyl-4H-[1,2,4]triazolo[4,3-a][1,4]benzodiazepin-4-ylcarbamate], in series [2], the IC50 was not above 10 µM.

Consider `Cc1nnc2n1-c1ccccc1C(c1ccccc1)=NC2NC(=O)/C=C/c1ccc(F)cc1` (centres unmarked) [Example 65, (2E)-3-(4-fluorophenyl)-N-(1-methyl-6-phenyl-4H-[1,2,4]triazolo[4,3-a][1,4]benzodiazepin-4-yl)-2-propenamide], for which the IC50 in series [2] was not above 10 µM.

With `COc1ccc(C2=NC(NC(=O)Nc3ccc(C(=O)c4ccccc4)cc3)c3nnc(C)n3-c3ccccc32)cc1` (centres unmarked), the melting point (as a rule, the temperature of the solid-liquid transition) was 225 °C.

As for `Cc1nnc2n1-c1ccccc1C(c1ccccc1)=NC2NC(=O)Nc1ccccc1` (centres unmarked) [Example 70, N-(1-methyl-6-phenyl-4H-[1,2,4]triazolo[4,3-a][1,4]benzodiazepin-4-yl)-N′-phenyl urea], the melting point was more than 260 °C.

Take `Cc1nnc2n1-c1ccc(Br)cc1C(c1ccccc1F)=NC2NC(=O)OCc1ccccc1` (centres unmarked) [Example 17, phenylmethyl [8-bromo-6-(2-fluorophenyl)-1-methyl-4H-[1,2,4]triazolo[4,3-a][1,4]benzodiazepin-4-yl]carbamate]: the melting point was in the range of 160 to 170 °C.

In the case of `CCOC(=O)NC1N=C(c2ccc(Cl)cc2)c2ccccc2-n2c(C)nnc21` (single isomer, unassigned; (+)) [Example 28, (+)-ethyl [6-(4-chlorophenyl)-1-methyl-4H-[1,2,4]triazolo[4,3-a][1,4]benzodiazepin-4-yl]carbamate], the IC50 in series [2] was not above 10 µM.

In turn, `COc1ccc2cc(C(=O)NC3N=C(c4ccccc4)c4ccccc4-n4c(C)nnc43)[nH]c2c1` (centres unmarked) [Example 53, 6-(methyloxy)-N-(1-methyl-6-phenyl-4H-[1,2,4]-triazolo[4,3-a][1,4]benzodiazepin-4-yl)-1H-indole-2-carboxamide] returned a melting point of 160 to 170 °C. For the same compound, in series [2], the IC50 is not above 10 µM.

On to `Cc1nnc2n1-c1ccccc1C(c1ccccc1)=NC2NC(=O)OCc1ccccc1` (single isomer, unassigned; (+)) [Example 27, (+)-phenylmethyl (1-methyl-6-phenyl-4H-[1,2,4]triazolo[4,3-a][1,4]benzodiazepin-4-yl)carbamate], for which, in series [2], the IC50 was not above 10 µM.
